Experimental data from ChEMBL document CHEMBL1139040, “4-Methylideneisoxazolidin-5-ones--a new class of alpha-methylidene-gamma-lactones with high cytostatic activity” (Bioorg Med Chem Lett, 2006).

Key:
Type in all cases: functional, cell-based
L1210 = test: Antiproliferative activity against mouse L1210 leukemia cell line
NALM-6 = test: Antiproliferative activity against human NALM6 leukemia cell line
HL-60 = test: Antiproliferative activity against human HL60 leukemia cell line

IC50 (L1210) [µM] | IC50 (HL-60) [µM] | Structure (SMILES) | IC50 (NALM-6) [µM]
0.8 | 5.4 | C=C1C(=O)ON(C)C1c1ccc(C)cc1 (configuration not stated) | 5.8
0.8 | 7.4 | C=C1C(=O)ON(C)C1c1ccc([N+](=O)[O-])cc1 (configuration not stated) | 5.2
0.7 | 5.1 | C=C1C(=O)ON(C)C1c1ccc(Br)cc1 (configuration not stated) | 4.6

Continued, compound first:

Structure (SMILES) | IC50 (L1210) [µM] | IC50 (HL-60) [µM] | IC50 (NALM-6) [µM]
C=C1C(=O)ON(C)C1c1cccc2ccccc12 (configuration not stated) | 3.2 | 5.6 | 4.2
C=C1C(=O)ON(C)C1c1ccc(OC)cc1 (configuration not stated) | 3.5 | 5.4 | 5.5
C=C1C(=O)ON(C)C1c1ccccc1 (configuration not stated) | 5.5 | 34.8 | 4.96
C=C1C(=O)ON(C)C1C(C)CCC (configuration not stated) | 1.9 | 4.7 | 0.34
C=C1C(=O)ON(C)C1c1ccc2c(c1)OCO2 (configuration not stated) | 7 | 6.6 | 4.2
C=C1C(=O)ON(C)C1C(C)C (configuration not stated) | 2.63 | 0.74 | 4.16
